Source: US20260373136A1, “A NOVEL DOSAGE REGIMEN USING LOW DOSES OF DONEPEZIL OR DERIVATIVE THEREOF FOR PREVENTING OR TREATING A COMPULSIVE DISORDER” (SORBONNE UNIVERSITE, priority 2022, published 2026)
Read-outs that look alike come from different tables or passages of the source.

Legend:
[1] = Eating Disorder Examination Questionnaire (EDE-q) before and after treatment; type: in vivo, human; set-up: scale not given here; conditions: >=4 clinical range, >2.8 possible clinically significant pathology
Experimental: (§1) 6 anorexic patients were treated with donepezil: 5 of them with a daily dose according to the present invention and 1 with a higher dose (comparative).
(§2) The studies were led in hospital. Each case is presented below.
(§3) The treatment started with a daily dose of donepezil of 0.5 mg for 13 days then the daily dose was increased to 0.75 mg for 9 days then increased to 1 mg for 17 days and then increased to 1.5 mg and remained at this dosage for a month then stopped for two months and then restarted with a daily dose of 1.5 mg that remains within 1 month and then discontinued.
The eating disorders of patient #4 before and after treatment have been evaluated with the Eating Disorder Examination Questionnaire (EDE-q) (available on https://www.corc.uk.net/outcome-experience-measures/eating-disorder-examination-questionnaire-ede-q/) which has given the following results:
(§4) The treatment started with a daily dose of donepezil of 0.5 mg for 8 days and then the daily dose was increased to 1 mg for 9 days and then increased to 1.67 mg for 62 days and then increased to 2.5 mg.
The eating disorders of patient #6 before and after treatment have been evaluated with EDE-q questionnaire which has given the following results: […]

[2] = Yale-Brown Obsessive Compulsive Scale questionnaire (Y-BOCS) before and after treatment; type: in vivo, human; conditions: for OCD symptoms: Y-BOCS post vs pre-treatment; for Y-BOCS score, post treatment: 0-7 subclinical, 8-15 mild, 16-23 moderate, 24-31 severe, 32-40 extreme symptoms
Experimental: as §1, §2
(§5) The treatment started with a daily dose of donepezil of 0.5 mg for 10 days then the daily dose was increased to 1 mg for 7 days then increased to 1.5 mg for 71 days (2 months and 10 days) then increased to 2 mg for 22 days and then increased to 2.5 mg and remains on this dose for 4 months and 18 days.
Patient #2 obsessive-compulsive disorders (OCD) symptoms have also been evaluated with the Yale-Brown Obsessive Compulsive Scale questionnaire (Y-BOCS) (available on https://pcl.psychiatry.uw.edu/wp-content/uploads/2021/12/YBOCS.pdf) before and after the treatment. The following scores have been obtained:
The score obtained with questionnaire Y-BOCS is classified as follows: • 0-7: subclinical; 8-15: mild symptoms; 16-23: moderate symptoms; 24-31: severe symptoms; 32-40: extreme symptoms
as §3
Patient #4 obsessive-compulsive disorders (OCD) symptoms have also been evaluated with questionnaire Y-BOCS-before and after the treatment. The following scores have been obtained:
as §4
Patient #6 obsessive-compulsive disorders (OCD) symptoms have also been evaluated with questionnaire Y-BOCS-before and after the treatment.

[3] = Body weight / BMI of anorexic patients treated with donepezil; type: in vivo, human
Experimental: The term “Body Mass Index” (BMI) is calculated by dividing the body mass of an individual (in kg) by his height (in […]). The BMI is generally used to evaluate if an individual suffers from under nutrition or on the contrary if he/she suffers from overweight or obesity.
as §1, §2
Patient #2 is a person who developed anorexia nervosa restricting type in adolescence. They were very restricted in the types of food they ate and could not eat food that was processed or high in sugar or fats. They exercised 3-4 hours a day. They were unable to reduce their exercising even minimally […] becoming flooded with debilitating anxiety. They were unable to eat enough to maintain a healthy weight. Their BMI was 18.5 kg/m^2 and was medically stable when they started donepezil.
as §5, §3
A patient who has suffered from anorexia nervosa during their second pregnancy. They have been vigilant about their caloric intake and body image since their adolescence. […] The symptomatology is dominated by qualitative and quantitative food restriction and physical hyperactivity. […] Neurocognitive executive functions are preserved, there is a high tolerance of delayed reward measured by Delay Discounting Task. […]

[4] = Patient #2, daily dose 0.5-2.5 mg
[5] = Patient #6, daily dose 0.5 mg to 2.5 mg, pre-treatment 3.8

COc1cc2c(cc1OC)C(=O)C(CC1CCN(Cc3ccccc3)CC1)C2 (stereo not shown) [donepezil]
improvement and severe side effects (Other patients (#2-#6), 0.5-2.5 mg PO OD (conclusion)): improved without severe side effects
blood pressure (Patient #1 (comparative), 5 mg daily per os, in local emergency department, previously normal 120/70 mmHg, no other cause found, donepezil discontinued): 183/124
side-effects (Patient #1 (comparative), 5 mg daily per os, within 5 days, responded to over-the-counter pain medications): drowsiness and headaches
blood pressure (Patient #1 (comparative), 5 mg daily per os, within a week, previously normal 120/70 mmHg): 175/120
blood pressure (Patient #1 (comparative), next few weeks after discontinuing donepezil (5 mg daily), previously normal 120/70 mmHg): 140/95
severe side effect (Patient #1, 5 mg PO OD (conclusion)): severe side effect (high blood pressure and severe headache)
blood pressure [4]: remained unaffected
other side-effects [4]: no other side-effects
side effects (low dose between 0.5 and 2.5 mg/day, clinical cases overall (conclusion)): without causing any side effects
EDE-q Restraint score, post treatment ([1]; Patient #4, daily dose 0.5 to 1.5 mg, pre-treatment 4): 2
EDE-q Eating concerns score, post treatment ([1]; Patient #4, daily dose 0.5 to 1.5 mg, pre-treatment 4.6): 2.2
EDE-q Global scores, post treatment ([1]; Patient #4, daily dose 0.5 to 1.5 mg, pre-treatment 4.9): 3.0
EDE-q Weight concerns score, post treatment ([1]; Patient #4, daily dose 0.5 to 1.5 mg, pre-treatment 5.4): 3.4
EDE-q Shape concerns score, post treatment ([1]; Patient #4, daily dose 0.5 to 1.5 mg, pre-treatment 5.8): 4.4
EDE-q Eating concerns score, post treatment ([1]; Patient #6, daily dose 0.5 mg to 2.5 mg, pre-treatment 0.6): 0.4
EDE-q Global scores, post treatment ([1]; Patient #6, daily dose 0.5 mg to 2.5 mg, pre-treatment 3.4): 2.6
EDE-q Restraint score, post treatment [1, 5]: 2.8
EDE-q Weight concerns score, post treatment [1, 5]: 3.2
EDE-q Shape concerns score, post treatment ([1]; Patient #6, daily dose 0.5 mg to 2.5 mg, pre-treatment 5.4): 4.1
OCD symptoms [2, 4]: diminution of OCD symptoms
Y-BOCS score, post treatment ([2]; Patient #2, daily dose 0.5-2.5 mg, pre-treatment score 32): 22
OCD symptoms ([2]; Patient #4, daily dose 0.5 to 1.5 mg): diminution of OCD symptoms
Y-BOCS score, post treatment ([2]; Patient #4, daily dose 0.5 to 1.5 mg, pre-treatment score 28): 16
OCD symptoms ([2]; Patient #6, daily dose 0.5 mg to 2.5 mg): diminution of OCD symptoms
Y-BOCS score, post treatment ([2]; Patient #6, daily dose 0.5 mg to 2.5 mg, pre-treatment score 28): 17
BMI ([3]; Patient #2, daily dose 0.5-2.5 mg, over the next 5 months, BMI 18.5 kg/m^2 at start, maintained): over 20 kg/m^2
BMI ([3]; Patient #4, daily dose 1.5 mg, within a month, BMI plateaued after rise to 15 kg/m^2 before treatment): 15.6 kg/m^2
body weight ([3]; Patient #5, 2.5 mg per day for 2 months, from 27 kg, in 3 months): 36 kg
